Measured values reported in ChEMBL document CHEMBL1141704, “Substituted ajoenes as novel anti-cancer agents” (Bioorg Med Chem Lett, 2008).
pIC50: −log10 of the molar value.

Test system: Fibroblast
Test: Anticancer activity against cobalt radiation CT-1 transformed fibroblasts
Assay type: functional, cell-based

`C=CCSS/C=C/C[S+]([O-])C(C)(C)C` (stereo not drawn) gave a pIC50 of 4.48.

In the case of `C=CCSS/C=C/C[S+]([O-])Cc1ccc(OC)cc1` (stereo not drawn), the pIC50 was 4.95.

`C=CCSS/C=C\C[S+]([O-])CC=C` (stereo not drawn) [(Z)-Ajoene] gave a pIC50 of 4.81.

`C=CCSS/C=C\C[S+]([O-])CCC` (stereo not drawn) was tested, and the pIC50 was 4.77.

Work on `C=CCSS/C=C\C[S+]([O-])CCCN1C(=O)c2ccccc2C1=O` (stereo not drawn) yielded a pIC50 of 4.46.

With `C=CCSS/C=C\C[S+]([O-])CCCOCc1ccc(OC)cc1` (stereo not drawn) the pIC50 was 4.66.

`C=CCSS/C=C/C[S+]([O-])CCC` (stereo not drawn) was tested, and the pIC50 was 4.57.

In the case of `C=CCSS/C=C/C[S+]([O-])CCCO` (stereo not drawn), the pIC50 was 4.64.

`C=CCSS/C=C/C[S+]([O-])CCCOCc1ccc(OC)cc1` (stereo not drawn) gave a pIC50 of 4.63.

`C=CCSS/C=C/C[S+]([O-])CCCN1C(=O)c2ccccc2C1=O` (stereo not drawn) gave a pIC50 of 4.02.

Compound `C=CCSS/C=C\C[S+]([O-])CCCO` (stereo not drawn) has a pIC50 of 4.64.

For `C=CCSS/C=C/C[S+]([O-])Cc1ccccc1` (stereo not drawn), the pIC50 was 4.78.

In the case of `C=CCSS/C=C/C[S+]([O-])CC=C` (stereo not drawn) [AJOENE], the pIC50 was 4.75.
